# Results reported in US7803558B2, “Modulation of aqueous humor outflow by targeting vascular-endothelial-cadherin in Schlemm's canal cells” (The Arizona Board of Regents on behalf of the University of …, priority 2003, dated 2010).
# Read-outs that look alike come from different tables or passages of the source.
# Key:
# [1] = system: MDCK cell monolayers (cell borders); conditions: by 60 seconds after Na2EDTA, data not shown
# Procedure: (§1) MDCK Cells: Madin-Darby Canine Kidney cells (MDCK), were used as a control to characterize perfusion system and for comparisons to SC monolayers. […] MDCK cells thus served as a positive control for comparisons with SC cells in subsequent experiments. MDCK Cells used in the present study were a gift from Dr. Ronald Lynch (University of Arizona) and were used between passages 14-16. Cells were grown in DMEM and maintained in humidified air containing 5% CO2 at 37° C. for at least three weeks after reaching confluence before experimentation.
# [2] = system: human Schlemm's canal (SC) cell monolayers
# Procedure: (§2) SC Cells: Human cadaveric eye tissue was obtained from Donor Network of Arizona, San Diego Lions Eye Bank or North Carolina Lions Eye Bank within 48 hours of death for whole eyes stored in moist chambers, and within 96 hours for non-transplantable corneal anterior segments stored in Optisol (Chiron Vision, Clairmont, Calif.). Human SC cells were isolated from the cadaveric eye tissue using gelatin-coated cannulas, as described previously (Stamer W D, et al Invest Opthalmol Vis Sci 1998; 39:1804-1812) or by differential dissection (O'Brien E, Invest. Opthalmol. Vis. Sci. 2000; 41:3842-3849). Cells used in perfusion studies were isolated by both methods while only cells isolated by differential dissection were used in morphology experiments. Cells were grown and maintained in Dulbecco's Modified Eagle Medium (DMEM) and maintained in humidified air containing 5% CO2 at 37° C., as described previously (Stamer W D, et al Invest Opthalmol Vis Sci 1998; 39:1804-1812). Human SC cells were seeded at 100,000 cells/cm^2onto 1-cm^2 Snapwell Filters (Snapwell; Costar, Acton, Mass.) with 0.4-μm pore diameter in 10% FBS/DMEM. Primary cultures of eight SC cell strains were isolated from eight different cadaveric eyes without a history of glaucoma and used in the present study (SC3, SC6, SC10, SC11, SC41, SC42, SC 57 and SC68).
# (§3) Transendothelial electrical resistance (TEER) of cell monolayers cultured on Snapwell filters was measured using a TEER measurement chamber (ENDOHM-24; World Precision Instruments) in conjunction with an epithelial voltohmmeter (EVOM; World Precision Instruments). Following three rinses with prewarmed 20 mM HEPES (Sigma, St. Louis, Mo.) buffered DMEM (serum-free, pH 7.4; HEPES-DMEM), filters were carefully transferred to the TEER measurement chamber filled with HEPES-DMEM. […] Pressure in the upstream compartment was generated by an elevated reservoir of HEPES-DMEM, with pressure recorded using a pressure transducer (AH 60-3002; Harvard Apparatus, Holliston, Mass.), while the downstream compartment was vented to atmospheric pressure. The rate of fluid flow through the chamber was calculated from the weight change per unit time of the reservoir measured using an isometric transducer (AH 60-2994; Harvard Apparatus). Pressure and weight data were recorded simultaneously at 30 times/sec onto hard drive of computer using a Data Acquisition System (MP100WSW; Biopac Systems, Inc., Santa Barbara, Calif.).
# (§4) Once stable TEER was achieved, a valve between the reservoir and chamber was opened to expose the upstream chamber to pressure. TEER, flow, and pressure measurements were recorded for 20 minutes to establish baseline values.
# [3] = system: SC cell monolayers (cell margins)
# Procedure: as §2
# [4] = system: MDCK cell monolayers
# Procedure: as §1
# Transendothelial electrical resistance (TEER) of cell monolayers cultured on Snapwell filters was measured using a TEER measurement chamber (ENDOHM-24; World Precision Instruments) in conjunction with an epithelial voltohmmeter (EVOM; World Precision Instruments). Following three rinses with prewarmed 20 mM HEPES (Sigma, St. Louis, Mo.) buffered DMEM (serum-free, pH 7.4; HEPES-DMEM), filters were carefully transferred to the TEER measurement chamber filled with HEPES-DMEM. […] The Snapwell filters containing the cell monolayers were then carefully placed into an Ussing-type chamber (Ussing system CHM5; World Precision Instruments, Sarasota, Fla.) filled with HEPES-DMEM and maintained at 37° C. in an air incubator for 15 minutes prior to pressure application. Filters were oriented such that the apical surface of cell monolayers faced the upstream chamber. Flow through cell monolayers was a function of the pressure gradient between the upstream and downstream compartments of the chamber. Pressure in the upstream compartment was generated by an elevated reservoir of HEPES-DMEM, with pressure recorded using a pressure transducer (AH 60-3002; Harvard Apparatus, Holliston, Mass.), while the downstream compartment was vented to atmospheric pressure. The rate of fluid flow through the chamber was calculated from the weight change per unit time of the reservoir measured using an isometric transducer (AH 60-2994; Harvard Apparatus). Pressure and weight data were recorded simultaneously at 30 times/sec onto hard drive of computer using a Data Acquisition System (MP100WSW; Biopac Systems, Inc., Santa Barbara, Calif.).
# as §4, with “values. […] The medium in the upstream chamber was then exchanged with […] HEPES-DMEM at a rate of 2.5 ml/min, and a second 10-minute baseline period was measured.” for “values.”
# Hydraulic conductivity was measured continuously and TEER measurements were then taken every five minutes for the duration of the trial.
# [5] = system: human Schlemm's canal (SC) cell monolayers; remark: listed apart in the source
# Procedure: as §2
# as §3, with “Instruments).” for “Instruments). Following three rinses with prewarmed 20 mM HEPES (Sigma, St. Louis, Mo.) buffered DMEM (serum-free, pH 7.4; HEPES-DMEM), filters were carefully transferred to the TEER measurement chamber filled with HEPES-DMEM.”
# as §4, with “values. […] The medium in the upstream chamber was then exchanged with […] HEPES-DMEM at a rate of 2.5 ml/min, and a second 10-minute baseline period was measured.” for “values.”
# [6] = system: MDCK cell monolayers; remark: listed apart in the source
# Procedure: as §1, §3
# as §4, with “values. […] The medium in the upstream chamber was then exchanged with […] HEPES-DMEM at a rate of 2.5 ml/min, and a second 10-minute baseline period was measured.” for “values.”
smiles,measurement,setting,value
O=C([O-])CN(CCN(CC(=O)[O-])CC(=O)O)CC(=O)O.[Na+].[Na+] [Na2EDTA],effect on cell borders,[1],retracted
same,time required for functional return after washout of Na2EDTA,"[2]; SC monolayers, functionally via TEER measurements",2 h
same,change in TEER decrease relative to 30-minute baseline in presence of pressure (paired t-test),"[2]; SC, 5 mM Na2EDTA",no significant change
same,average rate of TEER decrease after Na2EDTA treatment,"[2]; SC, 5 mM Na2EDTA for 5 min, 4-6 mm Hg, n=5, +/- SEM",0.34 (+/−0.26 SEM) Ωcm^2/min
same,average rate of change of TEER following rinse with normal medium,"[2]; SC, after 5 mM Na2EDTA for 5 min",not significantly different from pre-Na2EDTA rates
same,time required for cell margins to return to original position / cell-cell contacts to return visually after replacement of normal medium,"[3]; 10 mM Na2EDTA for 5 minutes, then normal medium, data not shown",about 30 minutes
same,retraction of cell margins from each other,[3]; 60 seconds after addition of 10 mM Na2EDTA,about 2 μm
same,retraction of cell margins from each other,[3]; 90 seconds after addition of 10 mM Na2EDTA,about 3 μm
same,recovery of TEER and hydraulic conductivity shortly after washout of Na2EDTA,"[4]; MDCK cell monolayers, perfusion experiments",partial recovery
same,minimum Na2EDTA required to effect both hydraulic conductivity and TEER,"[4]; MDCK cell monolayers, titration experiments, time course of the experiments, n=13-15, data not shown",25 mM
same,percent change in HC relative to baseline following post-Na2EDTA rinse versus percent change between the two baseline measurements,"[4]; MDCK, paired t-test",not
same,percent change in HC relative to baseline following Na2EDTA treatment versus percent change between the two baseline measurements,"[4]; MDCK, paired t-test, p<0.05",significantly greater
same,impact of lower concentrations on HC or TEER,"[5]; SC monolayers, 0.5-2 mM Na2EDTA, n=6",not to impact significantly
same,minimum Na2EDTA needed to effect both hydraulic conductivity and TEER,"[5]; SC monolayers, titration experiments, time course of the experiments, n=13-15, data not shown",5 mM
same,percent change in HC relative to baseline following Na2EDTA treatment versus percent change between the two baseline measurements,"[5]; SC, paired t-test, p<0.05",significantly greater
same,percent change in HC relative to baseline following post-Na2EDTA rinse versus percent change between the two baseline measurements,"[5]; SC, paired t-test, p<0.05",significantly greater
same,average rate of TEER decrease after Na2EDTA treatment,"[6]; 25 mM Na2EDTA for 5 min, 14-16 mm Hg, n=4, +/- SEM",1.9 (+/−0.12 SEM) Ωcm^2/min
same,change in TEER relative to baseline in presence of pressure (paired t-test),"[6]; 25 mM Na2EDTA, p=0.06",approached significance
same,average rate of change of TEER following rinse with normal medium,[6]; after 25 mM Na2EDTA for 5 min,not significantly different from pre-Na2EDTA rates
